# Source: paper PMC9176691, “Design, synthesis and biological evaluation of novel diosgenin–benzoic acid mustard hybrids with potential anti-proliferative activities in human hepatoma HepG2 cells” (Journal of Enzyme Inhibition and Medicinal Chemistry, 2022)
# Assays:
# HepG2 cells [1] = assay: MTT anti-proliferative assay, HepG2; assay type: cell-based, human
# MCF-7 cells = assay: MTT anti-proliferative assay, MCF-7; assay type: cell-based, human
# HeLa cells = assay: MTT anti-proliferative assay, HeLa; assay type: cell-based; conditions: Homo sapiens, 48 h, read-out: IC50 HeLa
# GES-1 cells = assay: MTT cytotoxicity assay, normal GES-1; assay type: cell-based, human
# HepG2 cells [2] = assay: Flow cytometric analysis of cell cycle distribution (PI); assay type: cell-based, human; conditions: 24 h
# Experimental: HepG2 cells were seeded into 6-well plates and allowed to grow for a period of 12 h. After incubation with different concentrations of 14f (0, 5, 10, and 20 µM) for 24 h, the cells were trypsinized, washed with phosphate-buffered saline (PBS), and fixed in 1.5 ml of 75% ethanol for the night, at 4 °C, following which RNase and propidium iodide (PI) (Multi Sciences Biotech Co. Ltd.) were added to the cells. The cell cycle distribution and data processing were analysed using a flow cytometer (FACSCalibur™, BD Biosciences, USA).
# HepG2 cells [3] = assay: Apoptosis by flow cytometry (Annexin V-FITC/PI); assay type: cell-based, human; conditions: 48 h
# Experimental: Briefly, HepG2 cells were incubated in 6-well plates for 24 h, and then treated with 14f (0, 5, 10, and 20 µM) for 48 h. Following that, the cells were washed once with pre-cold PBS, re-suspended in 300 µL of buffer solution, and stained with 10 µL of Annexin V-FITC and 5 µL of PI staining solution, under the conditions of 37 °C and absence of any light source, for 10 min. Finally, the samples were immediately measured using a flow cytometer. The percentages of apoptotic cells were determined on the CellQuest™ software (BD Biosciences).
# HepG2 cells [4] = assay: Mitochondrial membrane potential (JC-1, flow cytometry); assay type: cell-based, human; conditions: 48 h (lower quadrant value)
# Experimental: HepG2 cells were plated into 6-well plates for 12 h. Following treatment with varying concentrations of 14f for 48 h, the cells were incubated with JC-1 dyeing working solution for 0.5 h at room temperature, then washed with staining buffer 3 times and re-suspended in 300 µL of staining buffer. The cells were finally assessed and analysed using a flow cytometer (FACSCalibur™).
# [5] = test system: CDK2, CDK4, CDK6, cyclin D1 and cyclin E1; assay type: cell-based, human
# [6] = test system: CDK2, CDK4, CDK6, cyclin D1, and cyclin E1; assay: Western blot of G0/G1 phase-related proteins; assay type: cell-based, human; conditions: HepG2 cells, 48 h
# Experimental: (§1) To analyse the effect of compound 14f on protein levels, western blot assay was employed, as elaborated previously. The proteins were acquired by collecting HepG2 cells treated with varying concentrations of 14f for 48 h and adding them to lysis buffer, in an ice bath for 30 min. After quantitation of protein concentration using BCA assay, equal amounts of total protein were separated using 10% sodium dodecyl sulphate-polyacrylamide gel electrophoresis and then transferred onto polyvinylidene fluoride membranes. The membranes were incubated with 5% bovine serum albumin solution for 1.5 h at 37 °C, followed by incubation with primary antibody overnight, and finally secondary antibody for 2 h at 37 °C. The blots were detected using enhanced chemiluminescence reagent with a fully automatic gel imaging system (ChemiDoc™ MP, Bio-Rad). The relative expression was calculated by normalising the expression of the control group to 1 for comparison.
# [7] = test system: Bax, Bcl-2, caspase 9, and caspase 3; assay type: cell-based, human
# caspase 9 = assay: Caspase 9 activity in cell lysates; assay type: cell-based, human; conditions: HepG2 cell lysates, 48 h
# Experimental: (§2) The activities of caspase 9 and caspase 3 in the cell lysates were evaluated as described previously. The harvested HepG2 cells treated with varying concentrations of 14f for 48 h were lysed using chilled 100 µL lysis buffer, to extract the total protein. The protein concentration was assessed using a Bradford Kit. The protein samples were incubated with assay buffer and colorimetric substrate (Ac-DEVD-pNA or Ac-LEHD-pNA) at room temperature for 2 h, according to the manufacturer’s protocol. The released pNAs were measured at the wavelength of 405 nm using a Multiskan® Spectrum system. The experiments were performed in triplicate.
# caspase 3 = assay: Caspase 3 activity in cell lysates; assay type: cell-based, human; conditions: HepG2 cell lysates, 48 h
# Experimental: as §2
# Bax and Bcl-2 = assay: Western blot of Bax and Bcl-2; assay type: cell-based, human; conditions: HepG2 cells, 48 h
# Experimental: as §1
# HepG2 cells [8] = assay: Hoechst 33342/PI staining, cell morphology; assay type: cell-based, human; conditions: HepG2, 5, 10 and 20 μM, 48 h
# Experimental: First, HepG2 cells were plated into 6-well plates, at a density of 1 × 10^6 cells/well. Thereafter, 14f (0, 5, 10, and 20 µM) was added to the cells and they were incubated with it for 48 h; 0.1% DMSO was used as a vehicle control. The cellular morphology was then observed and photographed using a light microscope (Olympus, 1 × 51, Japan). Next, HepG2 cells were incubated with 14f (0, 5, 10, and 20 µM) for 48 h, after which the cells were collected and stained with a mixture of Hoechst 33342 and PI in buffer solution, for 20 min at room temperature. Finally, the cell samples were studied and photographed under a fluorescence microscope (Obeserve.A1, Zeiss, Germany).
smiles,measurement,setting,value
"CC(=O)OC1CCC2(C)C(=CCC3C2CCC2(C)C3CC3OC(CCC(C)C(=O)N4CCCN(C(=O)c5ccc(N(CCCl)CCCl)cc5)CC4)C(C)C32)C1 [Compound 14f, (22 R,25R)-(4–(1-homopiperazinyl)-4-(bis(2-chloroethyl)amino)benzamido)-3β-acetoxy-5-en-furostan-26-amide]",potency fold higher than that of Mitomycin C,HepG2 cells [1],14.4 fold
same,IC50,"HepG2 cells [1]; Homo sapiens, HepG2, 48 h, read-out: IC50 HepG2",2.26 ± 0.87 µM
same,fold more active than DSG,MCF-7 cells,about 1.7 fold
same,IC50,"MCF-7 cells; Homo sapiens, MCF7, 48 h, read-out: IC50 MCF-7",11.1 ± 1.01 µM
same,IC50,HeLa cells,41.6 ± 3.12 µM
same,SI,GES-1 cells,>44.25
same,IC50,"GES-1 cells; Homo sapiens, GES1, 48 h, read-out: IC50 GES-1",> 100 µM
same,effect on the cell cycle,"HepG2 cells [2]; HepG2, 5, 10 and 20 µM",arrested the cell cycle at the G0/G1 phase
same,cells in G0/G1 phase,"HepG2 cells [2]; HepG2, 14f 5 μM",33.76%
same,cells in G0/G1 phase,"HepG2 cells [2]; HepG2, 14f 10 μM",40.38%
same,cells in G0/G1 phase,"HepG2 cells [2]; HepG2, 14f 20 μM",46.40%
same,apoptotic cells,"HepG2 cells [3]; HepG2, 14f 5 μM",9.80%
same,apoptotic cells,"HepG2 cells [3]; HepG2, 14f 10 μM",14.38%
same,apoptotic cells,"HepG2 cells [3]; HepG2, 14f 20 μM",28.13%
same,percentage of mitochondrial depolarisation,"HepG2 cells [4]; HepG2, JC-1, 14f 5 µM",7.90%
same,percentage of mitochondrial depolarisation,"HepG2 cells [4]; HepG2, JC-1, 14f 10 µM",15.55%
same,percentage of mitochondrial depolarisation,"HepG2 cells [4]; HepG2, JC-1, 14f 20 µM",40.46%
same,"genes levels of CDK2, CDK4, CDK6, cyclin D1 and cyclin E1",[5],decreased
same,"expression levels of CDK2, CDK4, CDK6, cyclin D1, and cyclin E1 proteins",[6],concentration-dependently downregulate
same,"gene expression of Bax, caspase 9, and caspase 3",[7],high gene expression
same,gene expression of Bcl-2,[7],suppressed
same,enzyme activity of caspase 9,caspase 9,upregulated
same,enzyme activity of caspase 3,caspase 3,upregulated
same,protein levels of Bax,Bax and Bcl-2,upregulated
same,protein levels of Bcl-2,Bax and Bcl-2,downregulation
same,apoptosis seen by Hoechst 33342/PI staining,HepG2 cells [8],increase in the apoptosis of HepG2 cells
